Experimental data from US10045981B2, “Selective kinase inhibitors” (JAKPHARM, LLC, priority 2015, dated 2018).
Values after ≈ are worked out from the molar mass of the structure shown. Like-named read-outs stand apart in the source and are kept apart here. Marks after values point to notes of the source that are not given here.

Assays:
[1] = target: T1, JAK3 (Homo sapiens, UniProt P52333); assay: JAK3 biochemical IC50; settings: for JAK3 selectivity vs. STAT5: STAT5 IC50 relative to JAK3 IC50; for selectivity for JAK3 compared to JAK1, JAK2, and TYK2 (in words): two independent analyses
T1 sequence (P52333 1-1124): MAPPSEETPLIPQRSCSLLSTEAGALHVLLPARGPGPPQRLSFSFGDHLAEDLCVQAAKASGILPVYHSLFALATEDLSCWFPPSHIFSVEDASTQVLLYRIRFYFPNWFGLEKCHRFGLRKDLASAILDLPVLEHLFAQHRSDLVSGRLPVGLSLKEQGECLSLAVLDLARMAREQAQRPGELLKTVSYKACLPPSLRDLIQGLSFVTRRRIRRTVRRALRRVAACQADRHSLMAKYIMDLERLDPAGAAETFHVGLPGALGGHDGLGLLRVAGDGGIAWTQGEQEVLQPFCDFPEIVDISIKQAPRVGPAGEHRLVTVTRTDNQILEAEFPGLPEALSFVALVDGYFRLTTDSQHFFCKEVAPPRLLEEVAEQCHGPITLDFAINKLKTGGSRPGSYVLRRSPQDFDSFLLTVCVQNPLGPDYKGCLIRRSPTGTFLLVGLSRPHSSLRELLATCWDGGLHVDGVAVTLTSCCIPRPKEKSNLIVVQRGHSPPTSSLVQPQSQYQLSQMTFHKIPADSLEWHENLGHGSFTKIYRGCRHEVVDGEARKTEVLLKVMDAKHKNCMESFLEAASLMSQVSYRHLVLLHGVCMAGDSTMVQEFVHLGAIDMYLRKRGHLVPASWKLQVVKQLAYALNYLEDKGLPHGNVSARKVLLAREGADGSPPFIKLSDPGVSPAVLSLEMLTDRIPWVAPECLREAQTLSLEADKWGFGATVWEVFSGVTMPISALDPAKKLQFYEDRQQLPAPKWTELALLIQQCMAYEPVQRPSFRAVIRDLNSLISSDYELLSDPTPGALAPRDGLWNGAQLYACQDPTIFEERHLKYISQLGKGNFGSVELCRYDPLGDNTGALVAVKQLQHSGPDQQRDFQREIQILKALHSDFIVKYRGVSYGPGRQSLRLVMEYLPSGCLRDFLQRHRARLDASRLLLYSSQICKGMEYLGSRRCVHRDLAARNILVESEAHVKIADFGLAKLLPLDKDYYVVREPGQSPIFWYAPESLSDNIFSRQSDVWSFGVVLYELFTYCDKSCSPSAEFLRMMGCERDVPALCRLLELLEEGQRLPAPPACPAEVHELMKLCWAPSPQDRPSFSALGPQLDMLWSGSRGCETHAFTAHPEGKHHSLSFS

[2] = system: STAT5; assay: STAT5 inhibition IC50; assay type: cell-based
[3] = target: JAK1 (Homo sapiens, UniProt P23458); assay: JAK1 IC50; assay type: biochemical
[4] = Solubility in aqueous buffer; assay type: physicochemical; settings: aqueous buffer, pH 7.4, aqueous buffer, aqueous buffer
[5] = target: CK1g1 (Homo sapiens, UniProt Q9HCP0); assay: Exemplary Kinase Panel Analysis; assay type: biochemical; settings: 10 concentrations, 3-fold serial dilutions starting at 5 μM, duplicate
[6] = target: CK1g2 (Homo sapiens, UniProt P78368); assay: Exemplary Kinase Panel Analysis; assay type: biochemical; settings: 10 concentrations, 3-fold serial dilutions starting at 5 μM, duplicate
[7] = target: CK1g3 (Homo sapiens, UniProt Q9Y6M4); assay: Exemplary Kinase Panel Analysis; assay type: biochemical; settings: 10 concentrations, 3-fold serial dilutions starting at 5 μM, duplicate
[8] = target: EGFR (G719C) (Homo sapiens, UniProt P00533, G719C); assay: Exemplary Kinase Panel Analysis; assay type: biochemical; settings: 10 concentrations, 3-fold serial dilutions starting at 5 μM, duplicate
Experimental: Kinase Panel: These compounds were tested against 439 kinases. […]. […] The results are presented in Table 2 below, where empty cells indicate no inhibition or compound activity that could not be fit to an IC50 curve.

[9] = target: T2, CYP1A2 (Homo sapiens, UniProt P05177); assay: CYP1A2 inhibition LCMS; assay type: in vitro ADME
T2 sequence (P05177 1-516): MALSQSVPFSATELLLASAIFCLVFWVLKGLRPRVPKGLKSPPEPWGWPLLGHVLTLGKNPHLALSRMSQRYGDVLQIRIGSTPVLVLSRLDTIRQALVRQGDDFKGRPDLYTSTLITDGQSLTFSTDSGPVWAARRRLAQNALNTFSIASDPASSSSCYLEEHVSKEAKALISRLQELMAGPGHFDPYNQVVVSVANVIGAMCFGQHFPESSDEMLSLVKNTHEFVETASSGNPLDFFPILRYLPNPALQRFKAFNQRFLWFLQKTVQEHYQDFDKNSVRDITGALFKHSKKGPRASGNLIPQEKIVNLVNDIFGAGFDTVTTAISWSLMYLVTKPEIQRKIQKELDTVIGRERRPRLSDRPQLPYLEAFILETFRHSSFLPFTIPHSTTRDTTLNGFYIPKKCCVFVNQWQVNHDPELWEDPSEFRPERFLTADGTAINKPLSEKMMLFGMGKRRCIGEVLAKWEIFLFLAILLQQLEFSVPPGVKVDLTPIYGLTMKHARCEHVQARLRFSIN

[10] = target: CYP2D6 (Homo sapiens, UniProt P10635); assay: CYP2D6 inhibition LCMS; assay type: in vitro ADME
[11] = target: T3, CYP3A4 (Homo sapiens, UniProt P08684); assay: CYP3A4 inhibition midazolam LCMS; assay type: in vitro ADME
[12] = target: T3, CYP3A4; assay: CYP3A4 inhibition testosterone LCMS; assay type: in vitro ADME; settings: read-out: CYP3A4 K50 [uM] testosterone LCMS
[13] = Human Plasma protein binding; assay type: in vitro ADME
[14] = target: T4, hERG (Homo sapiens, UniProt Q12809); assay: hERG K+ channel current in HEK293 cells; assay type: cell-based
T4 construct: expressed in transfected cells; host or cells: HEK293

[15] = Mouse Plasma protein binding; assay type: in vitro ADME
[16] = Original analysis, read-out: JAK3 IC50 (uM) Original
[17] = Table 3, first session (before /), read-out: JAK3 biochemical IC50
[18] = Table 3, second session (after /), read-out: JAK3 biochemical IC50
[19] = re-test, read-out: JAK3 IC50 (uM) re-test
[20] = Original analysis, read-out: STAT5 IC50 (uM) Original
[21] = Table 3, first session (before /), read-out: STATS inhibition IC50
[22] = Table 3, second session (after /), read-out: STATS inhibition IC50
[23] = re-test, read-out: STAT5 IC50 (uM) re-test
[24] = Original analysis, read-out: JAK1 IC50 (uM) Original
[25] = re-test, read-out: JAK1 IC50 (uM) re-test
[26] = pH 7.4, Original, read-out: Solubility pH 7.4 (uM) Original
[27] = pH 7.4, Re-test, read-out: Solubility pH 7.4 (uM) Re-test
[28] = pH 7.4, Table 3, first session (before /), read-out: Solubility, pH 7.4
[29] = pH 7.4, Table 3, second session (after /), read-out: Solubility, pH 7.4

Chain of CYP2D6 (P10635 whole entry): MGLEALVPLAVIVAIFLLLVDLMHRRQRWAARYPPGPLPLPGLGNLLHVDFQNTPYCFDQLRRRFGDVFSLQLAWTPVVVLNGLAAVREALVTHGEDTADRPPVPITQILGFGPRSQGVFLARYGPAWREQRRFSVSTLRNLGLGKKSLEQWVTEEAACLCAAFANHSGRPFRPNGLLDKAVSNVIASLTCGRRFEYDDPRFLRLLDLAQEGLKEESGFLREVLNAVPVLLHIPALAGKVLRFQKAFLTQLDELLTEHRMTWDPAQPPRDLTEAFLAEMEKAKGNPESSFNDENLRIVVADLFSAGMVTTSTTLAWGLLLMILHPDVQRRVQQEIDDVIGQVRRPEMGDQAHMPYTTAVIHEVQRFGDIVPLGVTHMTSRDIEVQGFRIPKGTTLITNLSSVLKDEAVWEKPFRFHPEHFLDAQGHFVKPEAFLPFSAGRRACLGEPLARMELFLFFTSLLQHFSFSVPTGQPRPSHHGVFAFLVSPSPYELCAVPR
Chain of JAK1 (P23458 whole entry, species assumed): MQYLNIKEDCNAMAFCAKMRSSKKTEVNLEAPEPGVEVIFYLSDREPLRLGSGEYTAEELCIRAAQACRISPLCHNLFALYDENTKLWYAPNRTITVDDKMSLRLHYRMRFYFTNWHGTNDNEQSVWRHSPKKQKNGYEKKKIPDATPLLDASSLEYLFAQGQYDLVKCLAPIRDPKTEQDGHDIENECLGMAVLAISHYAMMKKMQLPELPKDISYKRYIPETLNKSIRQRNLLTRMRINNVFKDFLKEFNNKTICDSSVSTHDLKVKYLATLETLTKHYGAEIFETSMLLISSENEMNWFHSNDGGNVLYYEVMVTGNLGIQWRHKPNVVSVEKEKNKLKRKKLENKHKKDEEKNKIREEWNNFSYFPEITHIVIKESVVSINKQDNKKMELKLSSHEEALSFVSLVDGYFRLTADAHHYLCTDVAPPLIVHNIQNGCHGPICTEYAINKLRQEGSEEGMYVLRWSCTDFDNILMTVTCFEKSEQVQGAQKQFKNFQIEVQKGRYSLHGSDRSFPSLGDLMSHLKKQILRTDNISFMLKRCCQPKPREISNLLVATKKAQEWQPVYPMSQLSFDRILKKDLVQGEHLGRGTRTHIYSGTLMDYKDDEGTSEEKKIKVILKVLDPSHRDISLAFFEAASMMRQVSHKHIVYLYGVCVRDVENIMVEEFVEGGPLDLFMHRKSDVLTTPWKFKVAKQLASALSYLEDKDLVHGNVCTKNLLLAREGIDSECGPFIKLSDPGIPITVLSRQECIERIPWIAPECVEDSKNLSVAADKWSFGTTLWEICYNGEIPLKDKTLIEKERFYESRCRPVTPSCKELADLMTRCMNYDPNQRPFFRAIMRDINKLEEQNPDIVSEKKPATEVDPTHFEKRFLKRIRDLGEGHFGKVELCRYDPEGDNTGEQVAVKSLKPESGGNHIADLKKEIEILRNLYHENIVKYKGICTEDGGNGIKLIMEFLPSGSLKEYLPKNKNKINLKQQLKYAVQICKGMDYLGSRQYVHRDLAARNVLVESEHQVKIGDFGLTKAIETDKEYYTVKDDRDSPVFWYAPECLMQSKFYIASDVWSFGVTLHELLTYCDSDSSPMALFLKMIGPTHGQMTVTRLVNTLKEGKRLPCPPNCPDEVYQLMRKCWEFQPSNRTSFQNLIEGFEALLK
T3 sequence (P08684 whole entry): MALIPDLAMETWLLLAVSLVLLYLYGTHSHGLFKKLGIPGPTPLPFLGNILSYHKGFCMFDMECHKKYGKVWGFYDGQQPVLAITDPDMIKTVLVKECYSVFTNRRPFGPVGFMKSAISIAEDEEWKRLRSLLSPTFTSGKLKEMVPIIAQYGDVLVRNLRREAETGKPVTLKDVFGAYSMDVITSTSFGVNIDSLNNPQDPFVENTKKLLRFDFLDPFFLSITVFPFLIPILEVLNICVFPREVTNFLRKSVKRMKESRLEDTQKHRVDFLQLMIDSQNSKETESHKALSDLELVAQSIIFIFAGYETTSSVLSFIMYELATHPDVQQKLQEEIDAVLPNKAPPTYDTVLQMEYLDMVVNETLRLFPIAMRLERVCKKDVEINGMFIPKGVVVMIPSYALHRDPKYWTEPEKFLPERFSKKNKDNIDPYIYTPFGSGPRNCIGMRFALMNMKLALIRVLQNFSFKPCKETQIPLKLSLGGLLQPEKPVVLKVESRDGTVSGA
Chain of CK1g3 (Q9Y6M4 whole entry): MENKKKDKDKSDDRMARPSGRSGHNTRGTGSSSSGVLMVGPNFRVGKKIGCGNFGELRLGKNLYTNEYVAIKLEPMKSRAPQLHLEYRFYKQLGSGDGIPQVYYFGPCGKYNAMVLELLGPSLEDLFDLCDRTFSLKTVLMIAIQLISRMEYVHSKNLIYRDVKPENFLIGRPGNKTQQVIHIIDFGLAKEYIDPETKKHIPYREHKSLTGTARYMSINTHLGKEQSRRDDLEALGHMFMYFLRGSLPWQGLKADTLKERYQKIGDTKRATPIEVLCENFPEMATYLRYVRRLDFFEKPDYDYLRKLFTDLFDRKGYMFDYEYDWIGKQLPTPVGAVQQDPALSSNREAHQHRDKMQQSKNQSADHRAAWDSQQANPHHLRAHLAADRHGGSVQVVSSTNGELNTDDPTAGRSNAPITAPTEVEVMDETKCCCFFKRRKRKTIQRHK
Chain of CK1g1 (Q9HCP0 whole entry): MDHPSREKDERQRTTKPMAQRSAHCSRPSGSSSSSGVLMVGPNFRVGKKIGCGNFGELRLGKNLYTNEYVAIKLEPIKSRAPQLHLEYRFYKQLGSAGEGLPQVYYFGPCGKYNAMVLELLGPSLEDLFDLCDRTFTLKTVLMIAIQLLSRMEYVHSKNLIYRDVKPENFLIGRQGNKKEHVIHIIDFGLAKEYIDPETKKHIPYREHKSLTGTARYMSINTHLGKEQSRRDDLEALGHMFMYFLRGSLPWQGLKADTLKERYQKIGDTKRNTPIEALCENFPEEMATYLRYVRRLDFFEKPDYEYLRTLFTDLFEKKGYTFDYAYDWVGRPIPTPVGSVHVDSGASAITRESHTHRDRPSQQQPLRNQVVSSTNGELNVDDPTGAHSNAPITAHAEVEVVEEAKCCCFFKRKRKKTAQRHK
Chain of CK1g2 (P78368 whole entry, species assumed): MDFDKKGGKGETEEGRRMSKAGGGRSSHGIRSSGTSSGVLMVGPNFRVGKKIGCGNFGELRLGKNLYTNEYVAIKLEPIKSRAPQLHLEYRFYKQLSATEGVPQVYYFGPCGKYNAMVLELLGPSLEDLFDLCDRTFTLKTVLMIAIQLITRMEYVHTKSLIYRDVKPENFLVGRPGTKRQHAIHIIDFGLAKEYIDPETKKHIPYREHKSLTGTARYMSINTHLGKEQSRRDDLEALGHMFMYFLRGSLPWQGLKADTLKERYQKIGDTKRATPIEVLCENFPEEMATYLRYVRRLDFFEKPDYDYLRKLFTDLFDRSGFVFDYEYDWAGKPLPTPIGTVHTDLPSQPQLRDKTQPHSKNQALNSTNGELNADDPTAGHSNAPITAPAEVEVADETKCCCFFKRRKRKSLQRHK
T4 sequence (Q12809 whole entry): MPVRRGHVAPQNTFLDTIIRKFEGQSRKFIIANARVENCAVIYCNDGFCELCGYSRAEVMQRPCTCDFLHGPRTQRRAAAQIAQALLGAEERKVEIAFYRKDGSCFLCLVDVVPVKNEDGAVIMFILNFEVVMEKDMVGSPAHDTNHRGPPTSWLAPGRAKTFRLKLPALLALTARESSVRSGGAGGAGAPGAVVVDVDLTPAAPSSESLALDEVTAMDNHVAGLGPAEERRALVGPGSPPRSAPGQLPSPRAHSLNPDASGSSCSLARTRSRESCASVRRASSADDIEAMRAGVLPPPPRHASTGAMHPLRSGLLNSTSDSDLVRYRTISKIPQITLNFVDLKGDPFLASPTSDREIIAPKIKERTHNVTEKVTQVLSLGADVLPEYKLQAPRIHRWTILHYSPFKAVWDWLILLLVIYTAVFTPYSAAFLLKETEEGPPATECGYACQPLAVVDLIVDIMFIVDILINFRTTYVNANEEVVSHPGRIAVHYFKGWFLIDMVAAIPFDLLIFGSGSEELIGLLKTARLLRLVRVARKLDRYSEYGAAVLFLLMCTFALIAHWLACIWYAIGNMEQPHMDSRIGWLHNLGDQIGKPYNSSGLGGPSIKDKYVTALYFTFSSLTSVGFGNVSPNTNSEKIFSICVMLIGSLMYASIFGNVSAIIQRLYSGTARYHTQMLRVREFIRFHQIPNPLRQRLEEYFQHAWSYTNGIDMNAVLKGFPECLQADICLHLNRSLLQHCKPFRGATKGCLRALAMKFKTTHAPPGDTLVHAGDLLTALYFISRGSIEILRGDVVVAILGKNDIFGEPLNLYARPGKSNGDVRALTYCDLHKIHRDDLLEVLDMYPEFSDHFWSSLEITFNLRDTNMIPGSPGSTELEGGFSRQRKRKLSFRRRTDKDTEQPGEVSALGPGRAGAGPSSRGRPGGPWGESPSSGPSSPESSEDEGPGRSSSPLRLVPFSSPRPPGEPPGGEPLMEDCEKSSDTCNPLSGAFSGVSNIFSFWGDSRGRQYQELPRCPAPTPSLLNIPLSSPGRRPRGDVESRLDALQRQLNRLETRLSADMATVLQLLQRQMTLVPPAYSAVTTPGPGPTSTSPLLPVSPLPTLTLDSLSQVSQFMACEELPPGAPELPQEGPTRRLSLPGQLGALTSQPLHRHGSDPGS

Row | Structure (SMILES) | IC50 [1, 16] [µM] | JAK3 selectivity vs. STAT5 [1] | IC50 [1, 17] [µM] | IC50 [1, 18] [µM] | IC50 [1, 19] [µM] | selectivity for JAK3 compared to JAK1, JAK2, and TYK2 (in words) [1] | IC50 [2, 20] [µM] | IC50 [2, 21] [µM] | IC50 [2, 22] [µM] | IC50 [2, 23] [µM] | IC50 [3, 24] [µM] | IC50 [3, 25] [µM] | solubility [4, 26] [µM] | solubility [4, 27] [µM] | solubility [4, 28] [µM] | solubility [4, 29] [µM] | IC50 [5] [µM] | IC50 [6] [µM] | IC50 [7] [µM] | IC50 ([9]; first session (before /)) [µM] | further results
1 | C=CC(=O)Nc1cc(CC(=O)OC)cc(-c2cnc3ccccc3n2)c1 [Compound 2] | 0.013 | (370X)* | 0.015 | 0.007 | 0.007 | highly selective for JAK3 | 0.8 | 0.8 | 2.9 | 2.9 | ≥ 100 | ≥ 100 | 9 (≈ 3.13 µg/mL) | 1 (≈ 0.347 µg/mL) | 9 (≈ 3.13 µg/mL) | 1 (≈ 0.347 µg/mL) | 0.0802 | 0.00986 | 0.0244 | 90 | IC50 [8]: 0.423 µM; IC50 ([9]; second session (after /)): 5.1 µM; IC50 ([10]; first session (before /)): > 100 µM; IC50 ([10]; second session (after /)): > 100 µM; IC50 ([11]; first session (before /)): > 100 µM; IC50 ([11]; second session (after /)): > 100 µM; IC50 ([12]; first session (before /)): > 100 µM; IC50 ([12]; second session (after /)): > 100 µM; fraction unbound [13]: 0.123; IC50 [14]: > 10 µM
2 | C=CC(=O)Nc1cc(NS(C)(=O)=O)cc(-c2cnc3ccccc3n2)c1 [Compound 3] | 0.016 | (382X)* | 0.016 | 0.023 | 0.023 | highly selective for JAK3 | 7.5 | 7.5 | 7.4 | 7.4 | ≥ 100 | ≥ 100 | 34 (≈ 12.5 µg/mL) | 3 (≈ 1.11 µg/mL) | 34 (≈ 12.5 µg/mL) | 3 (≈ 1.11 µg/mL) | 0.109 | 0.0333 | 0.118 | > 100 | IC50 ([9]; second session (after /)): > 100 µM; IC50 ([10]; first session (before /)): > 100 µM; IC50 ([10]; second session (after /)): > 100 µM; IC50 ([11]; first session (before /)): > 100 µM; IC50 ([11]; second session (after /)): > 100 µM; IC50 ([12]; first session (before /)): 89.7 µM; IC50 ([12]; second session (after /)): 51 µM; fraction unbound [13]: 0.054; fraction unbound [15]: 0.147; IC50 [14]: > 1 µM
